Assay results as given in US20190062846A1, “COMPOSITIONS AND METHODS FOR SCREENING PEDIATRIC GLIOMAS AND METHODS OF TREATMENT THEREOF” (DANA-FARBER CANCER INSTITUTE, INC., priority 2016, published 2019).

Columns and labels:
[1] = tested on: mouse neural stem cells engineered to express MYB-QKI5 (short variant); test: Percentage viability of mouse neural stem cells after increased doses of inhibitor; format: cell-based; conditions: mNSCs expressing MYB-QKI5 (short variant); doses 0, 0.05, 0.1, 0.3, 0.5, 1 μM; in comparison with GFP-expressing mNSCs; FIG. 42C
Protocol: (§1) FIGS. 42A-D are a set of graphs showing percentage viability of mouse neural stem cells expressing GFP (FIG. 42A), truncated MYB (FIG. 42B), MYB-QKI5 (short variant) (FIG. 42C), and MYB-QKI6 (short variant) (FIG. 42D) after the treatment of increased doses (0, 0.05, 0.1, 0.3, 0.5, and 1 μM) of JQ1, THZ1 (“CDK7i”), and DMSO as negative control.
(§2) FIG. 44 is a graph showing the percentage viability of mouse neural stem cells expressing GFP (“GFP”), truncated MYB (“MYBtr”), MYB-QKI5 (short variant) (“MYBQKI5”), and MYB-QKI6 (short variant) (“MYBQKI6”) after the treatment of increased doses (0, 0.05, 0.1, 0.3, 0.5, and 1 μM) of dasatinib or DMSO as negative control.
(§3) Modifiers of the MYB pathway and key upstream and downstream effectors were examined for their ability to inhibit growth and induce death of cells expressing MYB-QKI fusion protein. […] Thus, cells expressing truncated MYB or MYB-QKI were specifically sensitive to inhibition of BET by JQ1.
(§4) 1,000 cells/well were plated in 96-well plates, with five replicates. Cell viability was measured by assessing ATP content using CellTiter-Glo (Promega). Means±s.e.m. were calculated.

[2] = tested on: mouse neural stem cells engineered to express MYB-QKI6 (short variant); test: as above; format: cell-based; conditions: mNSCs expressing MYB-QKI6 (short variant); doses 0, 0.05, 0.1, 0.3, 0.5, 1 μM; in comparison with GFP-expressing mNSCs; FIG. 42D
Protocol: as §1, §2, §3, §4

[3] = tested on: mouse neural stem cells engineered to express truncated MYB; test: as above; format: cell-based; conditions: mNSCs expressing truncated MYB; doses 0, 0.05, 0.1, 0.3, 0.5, 1 μM; in comparison with GFP-expressing mNSCs; FIG. 42B
Protocol: as §1, §2, §3, §4

[4] = tested on: mouse neural stem cells engineered to express MYB-QKI5 (short variant); test: Cell growth of mouse neural stem cells over a time course; format: cell-based; conditions: mNSCs expressing MYB-QKI5 (short variant); 0.5 μM or 1 μM; 0, 1, 3, 5 days; in comparison with GFP-expressing mNSCs; FIG. 43C
Protocol: (§5) FIGS. 43A-D are a set of graphs showing cell growth of mouse neural stem cells expressing GFP (FIG. 43A), truncated MYB (FIG. 43B), MYB-QKI5 (short variant) (FIG. 43C), and MYB-QKI6 (short variant) (FIG. 43D) over a time course (0, 1, 3, and 5 days) in the presence of 0.5 μM or 1 μM of LY2835219 (“CDK4/6 inhibitor”).
(§6) Inhibition of CDK7 was also examined using a specific CDK7 inhibitor THZ1. […] Thus, cells expressing MYB-QKI were sensitive to inhibition of CDK7 by THZ1. This effect is specific with CDK7. […] Thus, cells expressing truncated MYB or MYB-QKI were specifically sensitive to inhibition of CDK7 by THZ1.
as §4

[5] = tested on: mouse neural stem cells engineered to express MYB-QKI6 (short variant); test: as above; format: cell-based; conditions: mNSCs expressing MYB-QKI6 (short variant); 0.5 μM or 1 μM; 0, 1, 3, 5 days; in comparison with GFP-expressing mNSCs; FIG. 43D
Protocol: as §5, §6, §4

[6] = tested on: mouse neural stem cells engineered to express truncated MYB; test: as above; format: cell-based; conditions: mNSCs expressing truncated MYB; 0.5 μM or 1 μM; 0, 1, 3, 5 days; in comparison with GFP-expressing mNSCs; FIG. 43B
Protocol: as §5, §6, §4

[7] = tested on: MYB-QKI5 (short variant) fusion protein; test: Quantity of protein after treatment with DUB inhibitor; format: cell-based, human; conditions: after treatment with PR619; FIG. 45
Source text: (§7) FIG. 45 is a graph showing the quantity of truncated MYB or MYB-QKI fusion protein after the treatment with PR619.
(§8) Another possible approach of suppressing cells expressing truncated MYB or MYB-QKI is reducing the amount of the truncated MYB or MYB-QKI protein, for example, by increasing the degradation of this protein. DUBs remove ubiquitination and thereby increase the half-life of proteins. Thus, DUB inhibitors may accelerate the degradation of truncated MYB or MYB-QKI.
(§9) Cells were lysed and subjected to SDS-PAGE gradient gels as previously described3l. Blots were probed with antibodies against MYB (ab45150, Abcam at 1:500 dilution), QKI (A300-183A, Bethyl Laboratories at 1:1,000 dilution) and actin (sc-1615, Santa Cruz Biotechnology at 1:2,000 dilution).

truncated MYB ("MYBtr") = test: as above; format: cell-based, human; conditions: after treatment with PR619; FIG. 45
Source text: as §7, §8, §9

[8] = tested on: MYB-QKI6 (short variant) fusion protein; test: as above; format: cell-based, human; conditions: after treatment with PR619; FIG. 45
Source text: as §7, §8, §9

Structure (SMILES) | viability of cells [1] | viability of cells [2] | viability of cells [3] | also measured
CN(C)C/C=C/C(=O)Nc1ccc(C(=O)Nc2cccc(Nc3ncc(Cl)c(-c4c[nH]c5ccccc45)n3)c2)cc1 [THZ1] | significantly compromised the viability | significantly compromised the viability | significantly compromised the viability | 
Cc1sc2c(c1C)C(c1ccc(Cl)cc1)=N[C@@H](CC(=O)OC(C)(C)C)c1nnc(C)n1-2 [JQ1] | significantly compromised the viability | significantly compromised the viability | significantly compromised the viability | 
CCN1CCN(Cc2ccc(Nc3ncc(F)c(-c4cc(F)c5nc(C)n(C(C)C)c5c4)n3)nc2)CC1 [LY2835219] |  |  |  | cell growth [4]: did not strongly inhibit the growth; cell growth [5]: did not strongly inhibit the growth; cell growth [6]: did not strongly inhibit the growth
N#CSc1cc(SC#N)c(N)nc1N [PR619] |  |  |  | amount of MYB-QKI5 (short variant) protein [7]: reduced the amount; amount of truncated MYB protein (truncated MYB ("MYBtr")): reduced the amount; amount of MYB-QKI6 (short variant) protein [8]: reduced the amount
